Assay results reported in US5919811A, “3-Substituted-indole-2-carboxylic acid derivatives as excitatory amino acid antagonists” (Glaxo Wellcome S.p.A., priority 1995, dated 1999).
Counter-ions that a name gives are not always drawn.

Molecular target: T1, strychnine insensitive glycine binding site located on the NMDA receptor complex (Rattus norvegicus, UniProt P35439)
T1 construct: from tissue; host or cells: central nervous system membranes, rat
Test: affinity for strychnine insensitive glycine binding site located on the NMDA receptor complex (procedure of Kishimoto H. et al)
Details: not given
Protocol: The potent and selective action of the compound of the invention at the strychnine- insensitive glycine binding site present on the NMDA receptor complex may be readily determined using conventional test procedures. Thus the ability to bind at the strychnine insensitive glycine binding site was determined using the procedure of Kishimoto H et al. J Neurochem 1981, 37 1015-1024. The selectivity of the action of compounds of the invention for the strychnine insensitive glycine site was confirmed in studies at other ionotropic known excitatory amino acid receptors.
The affinity of a compound of the invention for strychnine insensitive glycine binding site located on the NMDA receptor complex was determined using the procedure of Kishimoto H. et al J. Neurochem 1981, 37, 1015-1024. The pKi with representative compounds of the invention are given in […]

| Structure (SMILES) | Ki |
| --- | --- |
| NC(=O)NCc1ccc(NC(=O)/C=C/c2c(C(=O)O)[nH]c3cc(Cl)cc(Cl)c23)cc1 [Example 8, (E)4,6-dichloro-3-[2'-(4'-ureidomethylphenylcarbamoyl)ethenyl]-1-H-indole2-carboxylic acid] | 2.51 nM |
| O=C(/C=C/c1c(C(=O)O)[nH]c2cc(Cl)cc(Cl)c12)Nc1ccc(CNC(=O)Nc2ccccc2)cc1 [Example 16, (E)4,6-dichloro-3-[2'-(4'-phenylureidomethylphenylcarbamoyl)ethenyl]-1-H-indole 2-carboxylic acid] | 20 nM |
| NC(=O)Nc1ccc(NC(=O)/C=C/c2c(C(=O)O)[nH]c3cc(Cl)cc(Cl)c23)cc1 [Example 21, 4,6-dichloro-3-[(E)-2'-(4'-ureidophenylcarbamoyl)ethenyl]-1-H-indole2-carboxylic acid,] | 1.82 nM |
| O=C(/C=C/c1c(C(=O)O)[nH]c2cc(Cl)cc(Cl)c12)Nc1ccc(NC(=O)Nc2ccccc2)cc1 [Example 24, (E)-4,6-dichloro-3-[2'-(4'-phenyl-ureido-phenylcarbamoyl)ethenyl]-1H-indole-2-carboxylic acid] | 39.8 nM |
| CN(C)C(=O)Nc1ccc(NC(=O)/C=C/c2c(C(=O)O)[nH]c3cc(Cl)cc(Cl)c23)cc1 [Example 27, (E)-4,6-dichloro-3-[2'-(4'-dimethyl-ureido-phenylcarbamoyl)ethenyl]-1H-indole-2-carboxylic acid] | 3.89 nM |
| NC(=O)NCc1cccc(NC(=O)/C=C/c2c(C(=O)O)[nH]c3cc(Cl)cc(Cl)c23)c1 [Example 34] | 2.45 nM |
| O=C(/C=C/c1c(C(=O)O)[nH]c2cc(Cl)cc(Cl)c12)Nc1ccc(CNC(=O)NC2CCOCC2)cc1 [Example 39] | 9.12 nM |
| O=C(/C=C/c1c(C(=O)O)[nH]c2cc(Cl)cc(Cl)c12)Nc1ccc(NC(=O)NC2CC2)cc1 [Example 50, 4,6-dichloro-3-[(E)-2'-(4'-cyclopropylureidophenylcarbamoyl)ethenyl]-1-H-indole-2-carboxylic acid sodium salt] | 3.16 nM |
| O=C(/C=C/c1c(C(=O)O)[nH]c2cc(Cl)cc(Cl)c12)Nc1ccc(NC(=O)Nc2cccnc2)cc1 [Example 51, 4,6-dichloro-3-[(E)-2'-(4'-nicotin-3-ylureidophenylcarbamoyl)ethenyl]-1-H-indole2-carboxylic acid] | 3.89 nM |
| O=C(/C=C/c1c(C(=O)O)[nH]c2cc(Cl)cc(Cl)c12)Nc1ccc(NC(=O)NC2CCOCC2)cc1 [Example 52, 4,6-dichloro-3-[(E)-2'-(4'-(-tetrahydropyran-4"-yl)-ureidophenylcarbamoyl)ethenyl]-1-H-indole-2-carboxylic acid sodium salt] | 5.01 nM |

Test system: NMDA induced convulsions
Test: inhibition of NMDA induced convulsions in the mouse (procedure of Chiamulera C et al)
Assay type: in vivo
Details: iv, 0.1 mg/kg I.V., generalized seizures induced by intracerebroventricular injection of NMDA in mice
Protocol: The ability of compounds of the invention to inhibit NMDA induced convulsions in the mouse was determined using the procedure of Chiamulera C et al. Psychpharmacology 1990, 102,-551-552. In this test the ability of the compound to inhibit the generalized seizures induced by an intracerebroventricular injection of NMDA in mice was examined. Thus the % inhibition of the NMDA induced convulsions when a compound of the invention was given the dose of 0.1 mg/kg I.V. was determined and representative results obtained for compounds of the invention are given in the following table.

| Structure (SMILES) | inhibition in vivo at 0.1 mg/kg |
| --- | --- |
| NC(=O)NCc1ccc(NC(=O)/C=C/c2c(C(=O)O)[nH]c3cc(Cl)cc(Cl)c23)cc1 [Example 9, (E)4,6-dichloro-3-[2'-(4'-ureidomethylphenylcarbamoyl)ethenyl]-1-H-indole 2-carboxylic acid,sodium salt] | 60% |
| CCNC(=O)NCc1ccc(NC(=O)/C=C/c2c(C(=O)O)[nH]c3cc(Cl)cc(Cl)c23)cc1 [Example 12, (E)4,6-dichloro-3-[2'-(4'-ethylureidomethylphenylcarbamoyl)ethenyl]-1-H-indole 2-carboxylic acid,sodium salt] | 50% |
| CCNC(=S)NCc1ccc(NC(=O)/C=C/c2c(C(=O)O)[nH]c3cc(Cl)cc(Cl)c23)cc1 [Example 14, (E)4,6-dichloro-3-[2'-(4'-ethylthioureidomethylphenylcarbamoyl)ethenyl]-1-H-indole 2-carboxylic acid] | 30% |
| O=C(/C=C/c1c(C(=O)O)[nH]c2cc(Cl)cc(Cl)c12)Nc1ccc(CNC(=O)Nc2ccccc2)cc1 [Example 16, (E)4,6-dichloro-3-[2'-(4'-phenylureidomethylphenylcarbamoyl)ethenyl]-1-H-indole 2-carboxylic acid] | 30% |
| NC(=O)NCCc1ccc(NC(=O)/C=C/c2c(C(=O)O)[nH]c3cc(Cl)cc(Cl)c23)cc1 [Example 19, 4,6-dichloro-3-[(E)-2'-(4'-ureidoethylphenylcarbamoyl)ethenyl]-1-H-indole 2-carboxylic acid,sodium salt] | 30% |
| O=C(/C=C/c1c(C(=O)O)[nH]c2cc(Cl)cc(Cl)c12)Nc1ccc(CNC(=O)NC2CC2)cc1 [Example 31, (E)-4,6-dichloro-3-[-2'-(4'-cyclopropyl-ureido-methyl-phenylcarbamoyl)vinyl]-1H-indole-2-carboxylic acid sodium salt] | 40% |
| COc1ccc(NC(=O)NCc2ccc(NC(=O)/C=C/c3c(C(=O)O)[nH]c4cc(Cl)cc(Cl)c34)cc2)cc1 [Example 37, (E)-4,6-dichloro-3-{2'-[4'-(4"-methoxy-phenyl-ureidomethyl)-phenylcarbamoyl]ethenyl}-1H-indole-2-carboxylic acid] | 50% |
| O=C(/C=C/c1c(C(=O)O)[nH]c2cc(Cl)cc(Cl)c12)Nc1ccc(CNC(=O)NC2CCOCC2)cc1 [Example 40, sodium salt] | 40% |
| CCOC(=O)CNC(=O)NCc1ccc(NC(=O)/C=C/c2c(C(=O)OCC)[nH]c3cc(Cl)cc(Cl)c23)cc1 [Example 43] | 40% |
| O=C(O)CNC(=O)NCc1ccc(NC(=O)/C=C/c2c(C(=O)O)[nH]c3cc(Cl)cc(Cl)c23)cc1 [Example 44, (E)-4,6-dichloro-3-[2'-(4'-carboxymethylureido-methyl-phenylcarbamoyl)ethenyl]-1H-indole-2-carboxylic acid] | 40% |
